Reference: US3972882A, “Sym.-triazine carbamates” (Toyama Chemical Co., Ltd., priority 1973, dated 1976)
Where two headings read alike, the source gives them in different places.

Key:
[1] = test system: acetic acid-induced writhing; assay: Analgesic activity by the acetic acid-induced writhing test (K. Takagi et al. method); format: in vivo, ddY male mice
Excerpt: Analgesic activity by the acetic acid-induced writhing test [According to the K. Takagi et al. method [Journal of the Pharmaceutical Society of Japan, 78 553 (1958)], a test compound suspended in the solution including 0.5 % of Tween-80 was orally administered to a group of 8 ddY male mice weighing 20 to 24 g.]

carregeenin oedema = assay: Anti-carregeenin oedema activity (Winter method); format: in vivo, male rats
Excerpt: Anti-carregeenin oedema activity [According to the Winter method [Proc. Soc. exp. Biol. Med., 111 544 (1962)], a test compound suspended in the solution including 0.3 % of Tween-80 (a trade name of Atlas Powder Co., U.S.A.) was orally administered to a group of 5 male rats weighing 120 to 140 g.]
*1 Maximum oedema inhibition.
*2 Average oedema inhibition from 2 hrs to 5 hrs after the administration

toxicity test (LD50) = details: mouse, in vivo, mice
Excerpt: Therefore, the sym.-triazines of this invention are useful as an anti-inflammatory agent and analgesics.

[2] = Mus musculus, po, read-out: ED50

Row | Molecule | Inhibition (writhing) ([1]; 33.3 mg/kg p.o.) | Inhibition (writhing) ([1]; 100 mg/kg p.o.) | ED50 [1, 2] | Inhibition of oedema, Peak (maximum oedema inhibition) (carregeenin oedema; 70 mg/kg p.o.) | Inhibition of oedema, time of Peak (carregeenin oedema; 70 mg/kg p.o.) | Inhibition of oedema, Mean (average oedema inhibition from 2 hrs to 5 hrs after the administration) (carregeenin oedema; 70 mg/kg p.o.) | Inhibition of oedema, Peak (maximum oedema inhibition) (carregeenin oedema; 200 mg/kg p.o.) | Inhibition of oedema, time of Peak (carregeenin oedema; 200 mg/kg p.o.) | Inhibition of oedema, Mean (average oedema inhibition from 2 hrs to 5 hrs after the administration) (carregeenin oedema; 200 mg/kg p.o.) | Inhibition of oedema, Peak (maximum oedema inhibition) (carregeenin oedema; 500 mg/kg p.o.) | Inhibition of oedema, time of Peak (carregeenin oedema; 500 mg/kg p.o.) | Inhibition of oedema, Mean (average oedema inhibition from 2 hrs to 5 hrs after the administration) (carregeenin oedema; 500 mg/kg p.o.) | other results
1 | COC(=S)Nc1nc(OC)nc(OC)n1 [No. 3, methyl 2,4-dimethoxy-sym.-triazinylthioncarbamate] | 69.4% | 77.2% | 8 mg/kg | 37.2% | 2 h | 24.7% | 68.8% | 2 h | 46.7% | 78.3% | 2 h | 61.0% | Inhibition (writhing) ([1]; 3.7 mg/kg p.o.): 11.9%; Inhibition (writhing) ([1]; 11.1 mg/kg p.o.): 67.9%; LD50 (toxicity test (LD50); ip, read-out: LD50 i.p.): 500 mg/kg; LD50 (toxicity test (LD50); po, read-out: LD50 p.o.): 1050 mg/kg
2 | CCOC(=S)Nc1nc(O)nc(O)n1 [compound 10] | – | – | – | – | – | – | – | – | – | 13.0% | 2 h | – | –
3 | ethyl 2,4-dimethoxy-sym.-triazinylthiolcarbamate [No. 11] | – | 2.9% | – | – | – | – | – | – | – | – | – | – | Inhibition (writhing) ([1]; 300 mg/kg p.o.): 50.3%; ED50 ([1]; p.o.): 300 mg/kg
4 | methyl 2,4-diethoxy-sym.-triazinylthioncarbamate [No. 8] | – | – | – | – | – | – | – | – | – | 16.3% | 3 h | – | –
5 | ethyl 2,4-dihydroxy-sym.-triazinylthioncarbamate [No. 10] | – | – | – | – | – | – | – | – | – | 17.5% | 2 h | – | –
6 | methyl 2,4-diphenoxy-sym.-triazinylthioncarbamate [No. 9] | – | – | – | – | – | – | 27.1% | 5 h | 17.6% | – | 2 h | – | Inhibition of oedema, Mean (average oedema inhibition from 2 hrs to 5 hrs after the administration) (carregeenin oedema; 500 mg/kg p.o., listed as 7): 27.6%; Inhibition of oedema, Mean (average oedema inhibition from 2 hrs to 5 hrs after the administration) (carregeenin oedema; 500 mg/kg p.o., listed as 8): 23.5%; Inhibition of oedema, Peak (maximum oedema inhibition) (carregeenin oedema; 500 mg/kg p.o., listed as 7): 37.4%; Inhibition of oedema, Peak (maximum oedema inhibition) (carregeenin oedema; 500 mg/kg p.o., listed as 8): 32.2%
7 | COC(=O)Nc1nc(OC)nc(OC)n1 [No. 1, methyl 2,4-dimethoxy-sym.-triazinylcarbamate] | – | 16.3% | > 300 mg/kg | 51.0% | 2 h | 44.6% | 64.0% | 2 h | 49.5% | 61.4% | 2 h | 52.8% | Inhibition (writhing) ([1]; 300 mg/kg p.o.): 34.7%
8 | ethyl 2,4-dimethoxy-sym.-triazinyldithiocarbamate [No. 7] | 16.5% | 68.4% | – | – | – | – | – | – | – | 38.0% | 2 h | 18.1% | ED50 ([1]; p.o.): 67.5 mg/kg
9 | CCOC(=S)Nc1nc(OC)nc(OC)n1 [compound 4] | 94.4% | 96.9% | 6.6 mg/kg | 23.9% | 2 h | 21.8% | 45.9% | 2 h | 35.4% | 64.5% | 2 h | 50.6% | Inhibition (writhing) ([1]; 3.7 mg/kg p.o.): 7.6%; Inhibition (writhing) ([1]; 11.1 mg/kg p.o.): 89.4%; LD50 (toxicity test (LD50); ip, read-out: LD50 i.p.): 490 mg/kg; LD50 (toxicity test (LD50); po, read-out: LD50 p.o.): 1020 mg/kg
